In patent publication US12358901B2, “KV3 modulators” (priority 2018, dated 2025):
“And” between values parts separate entries of the source, which are not always exact repeats. Identical values can stand only once.

Target: human Kv3.1 channels (hKv3.1) (Homo sapiens, UniProt P48547)
Experiment: cell-based
Format: cell-based
Conditions: for Kv3.1 pEC50: HEK-hKv3.1 cells, -15 mV voltage step, normalised to 50 microM reference compound; for Kv3.1 max R %: maximum response relative to reference compound (50 microM)
Excerpt: The ability of the compounds of the invention to modulate the voltage-gated potassium channel subtypes Kv3.3/Kv3.2/Kv3.1 may be determined using the following assay. Analogous methods may be used to investigate the ability of the compounds of the invention to modulate other channel subtypes.
To assess compound effects on human Kv3.1 channels (hKv3.1):
Human embryonic kidney (HEK)-hKv3.1 cell line is generated by transfecting HEK-293 cells with an expression vector with human Kv3.1 (NM_004976.4). Cells are cultured with MEM supplemented with 10% Heat-Inactivated FBS, 2 mM L-glutamine, 1% Penicillin-Streptomycin, and 0.6 mg/ml of Geneticin (G418). HEK-hKv3.1b cells were amplified in T175 cm2 flask at 37° C. with 5% CO2, using MEM amplification medium, containing the G418 selection antibiotic (0.6 mg/ml). Cells were detached every 3-4 days, using DPBS to wash twice the flask, then TrypLE to dislodge the cells, and re-plated at a density of 2-4×10^6 cells/flask.
The day of the experiment, cells are removed from the incubator and the culture medium removed. Cells are washed with 5 ml of Dulbecco's PBS (DPBS) calcium and magnesium free and detached by the addition of 3 ml Versene (Invitrogen, Italy) followed by a brief incubation at 37° C. for 5 minutes. The flask is tapped to dislodge cells and 10 ml of DPBS containing calcium and magnesium is added to prepare a cell suspension. The cell suspension is then placed into a 15 ml centrifuge tube and centrifuged for 2 min at 1200 rpm. After centrifugation, the supernatant is removed and the cell pellet re-suspended in 4 ml of DPBS containing calcium and magnesium using a 5 ml pipette to break up the pellet. Cell suspension volume is then corrected to give a cell concentration for the assay of approximately 3 million cells per ml.
Experiments are conducted at r.t. using IonWorks Quattro™ planar array electrophysiology technology (Molecular Devices Corp.) with PatchPlate™ PPC. Stimulation protocols and data acquisition are carried out using a microcomputer (Dell Pentium 4). Planar electrode hole resistances (Rp) are determined by applying a 10 mV voltage step across each well. These measurements are performed before cell addition. After cell addition and seal formation, a seal test is performed by applying a voltage step from −80 mV to −70 mV for 160 ms. Following this, amphotericin-B solution is added to the intracellular face of the electrode to achieve intracellular access. Cells are held at −70 mV. Leak subtraction is conducted in all experiments by applying 50 ms hyperpolarizing (10 mV) prepulses to evoke leak currents followed by a 20 ms period at the holding potential before test pulses.
For hKv3.2 and hKv3.1, assays from the holding potential of −70 mV, a first test pulse at −15 mV was applied for 100 ms and after 100 ms at −70 mV a second pulse at +40 mV was applied for 50 ms. Cells were then maintained for 100 ms at −100 mV and another pulse from −70 mV to +40 mV (duration 50 ms) was applied to clamp later the voltage at −40 mV during 200 ms
The intracellular solution contains the following (in mM): K-gluconate 100, KCl 54, MgCl2 3.2, HEPES 5, adjusted to pH 7.3 with KOH. Amphotericin-B solution is prepared as 50 mg/ml stock solution in DMSO and diluted to a final working concentration of 0.1 mg/ml in intracellular solution. The external solution is Dulbecco's Phosphate Buffered Saline (DPBS) and contained the following (in mM): CaCl2 0.90, KCl 2.67, KH2PO4 1.47, MgCl·6H2O 0.493, NaCl 136.9, Na3PO4 8.06, with a pH of 7.4.
Compounds of use in the invention (or reference compounds such as N-cyclohexyl-N-[(7,8-dimethyl-2-oxo-1,2-dihydro-3-quinolinyl)methyl]-N-phenylurea) are dissolved in dimethylsulfoxide (DMSO) at a stock concentration of 10 mM. These solutions are further diluted with DMSO using a Biomek FX (Beckman Coulter) in a 384 compound plate. Each dilution (1 μL) is transferred to another compound plate and external solution containing 0.05% pluronic acid (66 μL) is added. […]

For `CC[C@H]1NC(=O)N(c2cnc(Oc3ccc(C)c4c3C3(CC3)CO4)cn2)C1=O` [Example 9, (5R)-5-ethyl-3-[5-(7-methylspiro[2H-benzofuran-3,1′-cyclopropane]-4-yl)oxypyrazin-2-yl]imidazolidine-2,4-dione], the “Kv3.1 pEC50” value was 5.88 and 5.90 and the “Kv3.1 max R %” value was 172% and 146%.

`CC[C@H]1NC(=O)N(c2cnc(Oc3cccc4c3C3(CC3)CO4)cn2)C1=O` [Example 10, (5R)-5-ethyl-3-(5-spiro[2H-benzofuran-3,1′-cyclopropane]-4-yloxypyrazin-2-yl)imidazolidine-2,4-dione] was tested, and the “Kv3.1 pEC50” value was 5.45 and 5.63 and the “Kv3.1 max R %” value was 153% and 147%.

With `Cc1ccc(Oc2ncc(N3C(=O)NC(C)(C)C3=O)cn2)c2c1OCC21CC1` [RE5, reference compound] the “Kv3.1 pEC50” value was 5.14 and the “Kv3.1 max R %” value was 158%.

`CC[C@H]1NC(=O)N(c2ccc(Oc3ccc(C)c4c3C3(CC3)CO4)nc2)C1=O` [RE11, reference compound] was tested, and the “Kv3.1 pEC50” value was 6.1 and the “Kv3.1 max R %” value was 152%.

With `CC[C@H]1NC(=O)N(c2ccc(Oc3cccc4c3C3(CC3)CO4)nc2)C1=O` [RE13, (5R)-5-ethyl-3-(6-spiro[2H-benzofuran-3,1′-cyclopropane]-4-yloxy-3-pyridyl)imidazolidine-2,4-dione, reference compound] the “Kv3.1 pEC50” value was 6.1 and the “Kv3.1 max R %” value was 149%.
